No end group written: not given here.

This data set deals with human primary hepatocytes. Kind of data set: LDL uptake assay (BODIPY-labelled LDL, high content imaging). It is filed as cell-based. To be noted: 5 uM concentration, 4 h. How it is done: The effects of putative cholesterol lowering peptides was assessed using LDL uptake assays in primary human hepatocytes from a pool of 10 healthy donors. Hepatocytes were treated with peptides as well as LDL-labelled BODIPY for 4 h. Cells were then fixed, permeabilized and imaged on an Opera Phenix high content imaging platform. LDL uptake was determined using BODIPY stain intensity.
Human primary hepatocytes were seeded into 96-well PhenoVue plates at 37K/well density and recovered overnight. The next say, hepatocytes were treated with 5 uM peptide or null control (DMSO) as well as a BODIPY-labelled LDL (Invitrogen™ Image-iT™ Low Density Lipoprotein Uptake Kit, Bodipy FL, I34359). This assay is designed to specifically detect binding and uptake of LDL through the LDL receptor internalization pathway, allowing maximum control and flexibility in experimental design. Two controls were built into the system, unlabeled LDL and heparin. Unlabeled LDL provides an optional pre-treatment to occlude cell surface receptors in advance of probing with the labeled construct, while heparin is provided as an additional control to chelate the LDL in the solution phase outside of the cells, thus preventing binding and uptake of the labeled LDL. Metformin, a type 2 diabetes drug with cholesterol lowering effects, was used as a positive control for increased LDL uptake (FIG. 1). Following peptide, control, and LDL-BODIPY treatment, cells were incubated for 4 h in a 37 C incubator with 5% CO2. Following incubation, cells were fixed with 4% paraformaldehyde for 15 min. Cells were then permeabilized and stained with DAPI to visualize nuclei. Wells were then washed with HBSS and imaged using a Perkin Elmer Opera Phenix high content imaging platform (fluorescence) at 20× magnification with 9 fields per well. BODIPY spot intensity was quantified using the Harmony image analysis software.
Regarding “MMLPLWTFLERAMLLLISEVANRFKWSNGYTWKMPKA [SEQ ID NO: 36277]”, the “LDL uptake in hepatocytes” value is recorded as “increasing LDL uptake”. Consider “LVVRWAVLVFRSSTAALPRAAEAARRSEKWPKTSALGRRS [SEQ ID NO: 26888]”, for which the “LDL uptake in hepatocytes” value is reported as “increasing LDL uptake”. With “MTAAVSLTRSPAISASCAASRSASPWAWPWTWF [SEQ ID NO: 75353]”, the “LDL uptake in hepatocytes” value is given as “increasing LDL uptake”.

The values above are taken from US20250320254A1, “Compositions and Methods for Modulating Circulating Factors” (Flagship Pioneering Innovations VII, LLC, priority 2022, published 2025).
